Experimental data published in patent US10806794B2, “Protease inhibitors having enhanced features” (priority 2008, dated 2020).
Several values for one entry are separate records, joined by “and”; a condition that tells them apart may be missing. Equal values may be shown once. Read-outs that look alike come from different tables or passages of the source.

Legend:
[1] = in vitro; assay type: in vitro ADME; conditions: monkey, microsomes
Source text: Metabolic stability of test compounds was studied in monkey liver microsomes.

[2] = biological target: recombinant HIV-1 protease (Human immunodeficiency virus type 1 group M subtype B (isolate HXB2) (HIV-1), UniProt P04585); test: Enzyme inhibition of purified HIV-1 protease (SensoLyte 520 HIV-Protease Assay Kit); assay type: biochemical
Method: Protease inhibitors (PI) are used to treat HIV infection by preventing viral assembly and maturation through the inhibition of HIV-1 protease activity. Biochemical assays were performed to evaluate the potential of PEG-PI conjugates to inhibit HIV-1 protease activity, relative to their respective PI parent molecules. Activity assays were performed at using the SensoLyte 520 HIV-Protease Assay Kit (Anaspec Inc., San Jose, Calif.) and recombinant HIV-1 protease. Protease activity was monitored by the formation of a fluorescent reporter product generated during HIV-1 protease-mediated digestion of a quenched, fluorimetric substrate containing the p17/p24 Pr^gag cleavage site.

[3] = test system: Caco-2 cells; test: in vitro
Method: Absorption properties of various compounds were measured using bi-directional permeability assays in Caco-2 cells. […] The efflux ratio is calculated as the ratio of the Papp(B→A)/Papp(A→B).

[4] = test system: HIV-1Ba-L; test: Anti-HIV-1 activity in monocyte-derived dendritic cells (reverse transcriptase activity); assay type: cell-based
Method: Freshly separated human PBMCs from a single donor were suspended in DPBS at 4×10^6 cells/mL and incubated in a 75 cm^2 cell culture flask for 90 minutes at 37° C., 5% CO2. Non-adherent cells were removed by washing with DPBS. Differentiation to dendritic cells was induced by 7 day incubation in RPMI 1640 medium supplemented with 10% fetal bovine serum, 2 mmol/L L-glutamine, 25 mM HEPES, 100 Units/mL penicllin, 10 μg/mL streptomycin, 50 ng/mL recombinant human granulocyte-macrophage-colony stimulating factor (GM-CSF), and 50 ng/mL recombinant human Interleukin (IL)-4 at 37° C., 5% CO2. The cells were further incubated for two days in the same cytokine cocktail supplemented with 10 ng/mL lipopolysaccharide (LPS). The monocyte-derived dendritic cells were then suspended at 10×10^6 cells/mL in complete medium (RPMI 1640 medium supplemented with 10% fetal bovine serum, 2 mmol/L L-glutamine, 25 mM HEPES, 100 Units/mL penicllin, 10 μg/mL streptomycin) and infected for 2 h at 37 C, 5% CO2 with HIV-1Ba-L at MOI=50-150 TCID50. […] Compound diluted in complete medium was added to cells. After seven days in culture, HIV-1 replication was quantified by measuring HIV-1 reverse transcriptase activity in cell-free supernatants using a standard radioactive tritiated thymidine triphosphate (TTP) polymerization incorporation assay. For each reaction, 1 μL of TTP (1 Ci/mL) was combined with 4 μL of dH2O, 2.5 μL of poly rA and oligo dT (0.5 mg/mL and 1.7 Units/mL, respectively), and 2.5 μL reaction buffer (125 μL 1 mol/L EGTA, 125 μL dH2O, 125 μL 20% Triton X-100, 50 μL 1 mol/L Tris, pH 7.4, 50 μL 1 mol/L DTT, 40 μL 1 mol/L MgCl2), then 10 μL of the resulting mixture was combined with 15 µL of virus-containing supernatant in a round-bottom microtiter plate and the plate incubated at 37° C. in a humidified incubator for 90 minutes. Following incubation, 10 μL of the reaction volume was spotted onto a DEAD filter mat, then washed 5×5 min with 5% sodium phosphate buffer, 2×1 minute in distilled water, 2×1 minute in 70% ethanol, then air dried. The filter mat was incubated with Opti-Fluor O scintillation fluid, and radioactivity quantified using a Wallac 1450 Microbeta Trilux liquid scintillation counter.

[5] = test system: monocyte-derived dendritic cells; test: Cytotoxicity in monocyte-derived dendritic cells (XTT); assay type: cell-based, human
Source text: Cell viability is directly proportional to the amount of reduced XTT product formed.

[6] = biological target: CYP3A4 (Homo sapiens (Human), UniProt P08684); test: CYP450 inhibition in human liver microsomes: CYP3A4;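 further: incubation at 37 °C started by adding 1 mM NADPH, with formation of the probe metabolite measured via LC-MS/MS or fluorescent detection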
Chain of CYP3A4 (P08684 whole entry): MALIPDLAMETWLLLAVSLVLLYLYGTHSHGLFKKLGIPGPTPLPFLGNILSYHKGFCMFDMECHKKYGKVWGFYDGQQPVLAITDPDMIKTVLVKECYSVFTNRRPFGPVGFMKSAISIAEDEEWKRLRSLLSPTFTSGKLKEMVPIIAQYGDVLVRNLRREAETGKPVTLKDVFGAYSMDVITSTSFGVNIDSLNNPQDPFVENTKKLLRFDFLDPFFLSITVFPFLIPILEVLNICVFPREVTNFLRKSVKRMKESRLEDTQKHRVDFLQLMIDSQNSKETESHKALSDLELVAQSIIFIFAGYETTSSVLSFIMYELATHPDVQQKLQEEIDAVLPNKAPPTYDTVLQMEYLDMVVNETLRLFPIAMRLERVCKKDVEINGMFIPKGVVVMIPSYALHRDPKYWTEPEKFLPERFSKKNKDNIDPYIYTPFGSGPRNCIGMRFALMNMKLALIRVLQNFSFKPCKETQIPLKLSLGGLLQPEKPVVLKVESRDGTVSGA

[7] = test system: human hepatocytes; test: Metabolic stability in cryopreserved human hepatocytes; conditions: human hepatocytes
Procedure, shortened: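 Test compounds at 0.1 μM or 3 μM incubated with cryopreserved human hepatocytes at 0.5×10^6 viable cells/mL. Sampling up to four hours (0.1 μM) or one or two hours (3 μM), methanol quench, then remaining parent measured by cassette LC-MS/MS.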

[8] = test system: mouse plasma proteins; test: Plasma protein binding by equilibrium dialysis, mouse plasma; assay type: in vitro ADME; conditions: fraction unbound
Method: (§1) In assays to estimate binding of test compounds to plasma proteins, test compound solutions (5 μM) are prepared in buffer and species-specific plasma (final DMSO concentration 0.5%). The plasma-containing solution is added to one side of the membrane of an equilibrium dialysis system, and the plasma-free is added to the other side. Dialysis was allowed to reach equilibrium by incubation for two hours at 37° C. The concentration of compound on both sides of the membrane was measured using LC-MS/MS.

[9] = test system: monkey plasma proteins; test: Plasma protein binding by equilibrium dialysis, monkey plasma; assay type: in vitro ADME; conditions: fraction unbound
Method: as §1

[10] = read-out: CYP3A4 IC50 Midazolam, probe substrate midazolam
[11] = read-out: CYP3A4 IC50 Testosterone, probe substrate testosterone
[12] = dendritic cells, first determination, read-out: EC50 First
[13] = dendritic cells, mean of three, read-out: Mean EC50
[14] = dendritic cells, second determination, read-out: EC50 Second
[15] = dendritic cells, third determination, read-out: EC50 Third
[16] = Caco-2 monolayers, apical to basolateral

SMILES | A→B, ×10^−6 ([3]; human, Caco-2) | TC50 [5] | IC50 [6, 10] | IC50 [6, 11] | EC50 [4, 12] | EC50 [4, 13] | EC50 [4, 14] | EC50 [4, 15] | Efflux ratio (B→A/A→B) ([3]; Caco-2 monolayers) | A→B, ×10^−6 [3, 16] | CLint ± SEM ([7]; 0.1 uM, up to four hours) | t1/2 ([7]; 0.1 uM, up to four hours) | Mouse Plasma Protein Binding Fu ± SD [8] | IC50 ([2]; read-out: IC50 ± SD) | Monkey Plasma Protein Binding Fu ± SD [9] | other results
COC(=O)N[C@H](C(=O)N[C@@H](Cc1ccccc1)[C@@H](O)CN(Cc1ccc(-c2ccccn2)cc1)NC(=O)[C@@H](NC(=O)OC)C(C)(C)C)C(C)(C)C [Atazanavir, reference compound] | 2.04 cm/s |  |  |  |  |  |  |  |  |  |  |  |  |  |  | half-life [1]: 24.2 min; microsomal CLint [1]: 42.9 µL/min/mg; IC50 ([2]; IC50 ± SD): 1.55 nM and 6.92 nM and 5.12 nM and 7.6 nM and 7.37 nM
CC(C)CN(C[C@@H](O)[C@H](Cc1ccccc1)NC(=O)O[C@H]1CO[C@H]2OCC[C@H]21)S(=O)(=O)c1ccc(N)cc1 [Darunavir, reference compound] |  | >200000 nM |  |  |  |  |  |  |  |  |  |  |  |  |  | EC50 ([4]; Human immunodeficiency virus 1, Dendritic cell, read-out: EC50 First, dendritic cells, first determination): 2 nM; EC50 ([4]; Human immunodeficiency virus 1, Dendritic cell, read-out: EC50 Second, dendritic cells, second determination): 3 nM; EC50 ([4]; Human immunodeficiency virus 1, Dendritic cell, read-out: EC50 Third, dendritic cells, third determination): 3 nM; EC50 ([4]; Human immunodeficiency virus 1, Dendritic cell, read-out: Mean EC50, dendritic cells, mean of three): 2.7 nM
COCCOCCOCCOc1ccc(C[C@H](NC(=O)O[C@H]2CO[C@H]3OCC[C@H]32)C(O)CN(CC(C)C)S(=O)(=O)c2ccc(N)cc2)cc1 (some centres unmarked) [mPEG3-O-Darunavir] |  | >200000 nM | 2590 nM | 4900 nM | 0.17 nM | 5.9 nM | 0.84 nM | 16.7 nM | 32 | 0.51 cm/s |  |  |  |  |  | 
COCCOCCOCCOCCOCCNc1ccc(S(=O)(=O)N(CC(C)C)CC(O)[C@H](Cc2ccccc2)NC(=O)O[C@H]2CO[C@H]3OCC[C@H]32)cc1 (some centres unmarked) [mPEG5-N-Darunavir] |  | >200000 nM | 2700 nM | 4000 nM | 8 nM | 16.7 nM | 2 nM | 40 nM | 21 | 1.07 cm/s | 3.94 ± 0.386 μL/min/10^6 cells | 352 min |  |  |  | CLint ± SEM ([7]; 3 uM, incubated up to one hour): 11.9 ± 1.40 μL/min/10^6 cells
COCCOCCOCCOCCOCCOc1ccc(C[C@H](NC(=O)O[C@H]2CO[C@H]3OCC[C@H]32)C(O)CN(CC(C)C)S(=O)(=O)c2ccc(N)cc2)cc1 (some centres unmarked) [mPEG5-O-Darunavir] |  | >200000 nM | > 2500 nM | > 25000 nM | 60 nM | 56.7 nM | 60 nM | 50 nM |  |  |  |  |  |  |  | 
COCCOCCOCCOCCOCCOCCOCCNc1ccc(S(=O)(=O)N(CC(C)C)CC(O)[C@H](Cc2ccccc2)NC(=O)O[C@H]2CO[C@H]3OCC[C@H]32)cc1 (some centres unmarked) [mPEG7-N-Darunavir] |  | >200000 nM | 5400 nM | 12900 nM | 70 nM | 63.3 nM | 40 nM | 80 nM |  | 0.32 cm/s |  |  |  |  |  | CLint ± SEM ([7]; 3 uM, incubated up to one hour): 5.13 ± 0.611 μL/min/10^6 cells
COCCOC(=O)NC(C(=O)NC(Cc1ccccc1)C(O)CN(Cc1ccc(-c2ccccn2)cc1)NC(=O)C(NC(=O)OC)C(C)(C)C)C(C)(C)C (centres unmarked) [mono-mPEG1-Atazanavir] | 1.25 cm/s | >1000 nM | 2560 nM | 10400 nM | 0.16 nM | 0.183 nM | 0.25 nM | 0.14 nM | 26 |  | 15.3 ± 0.00173 μL/min/10^6 cells | 90.5 min | 0.0666 ± 0.00662 | 2.82 nM | 0.246 ± 0.0239 | 
COCCOCCOCCOC(=O)NC(C(=O)NC(Cc1ccccc1)C(O)CN(Cc1ccc(-c2ccccn2)cc1)NC(=O)C(NC(=O)OC)C(C)(C)C)C(C)(C)C (centres unmarked) [mono-mPEG3-Atazanavir, {1-[N′-[2-Hydroxy-3-(2-{2-[2-(2-methoxy-ethoxy)-ethoxy]-ethoxycarbonylamino}-3,3-dimethyl-butyrylamino)-4-phenyl-butyl]-N′-(4-pyridin-2-yl-benzyl)-hydrazinocarbonyl]-2,2-dimethyl-propyl}-carbamic Acid Methyl Ester] |  |  |  |  |  |  |  |  |  |  |  |  |  |  |  | IC50 ([6]; CYP3A4 IC50 Midazolam, probe substrate midazolam): 2850 nM; IC50 ([6]; CYP3A4 IC50 Testosterone, probe substrate testosterone): 12800 nM; half-life [1]: 26.8 min; microsomal CLint [1]: 249 µL/min/mg
COCCOCCOCCOCCOCCOC(=O)NC(C(=O)NC(Cc1ccccc1)C(O)CN(Cc1ccc(-c2ccccn2)cc1)NC(=O)C(NC(=O)OC)C(C)(C)C)C(C)(C)C (centres unmarked) [mono-mPEG5-Atazanavir] | 0.12 cm/s | >1000 nM | 9350 nM | > 25000 nM | 0.15 nM | 1.24 nM | 3.42 nM | 0.14 nM | 88 |  | 3.98 ± 0.000356 μL/min/10^6 cells | 348 min | 0.217 ± 0.0103 | 2.91 nM | 0.383 ± 0.359 | Clint [1]: 175 μL/min/mg protein; t½ [1]: 57.6 min
COCCOCCOCCOCCOCCOCCOCCOC(=O)NC(C(=O)NC(Cc1ccccc1)C(O)CN(Cc1ccc(-c2ccccn2)cc1)NC(=O)C(NC(=O)OC)C(C)(C)C)C(C)(C)C (centres unmarked) [mono-mPEG7-Atazanavir] | 0.10 cm/s | >1000 nM | 20100 nM | > 25000 nM | 0.13 nM | 4.03 nM | 11.7 nM | 0.25 nM | 52 |  |  |  | 0.174 ± 0.00791 | 1.29 nM | 0.570 ± 0.0439 | 
